Patent publication US20240246955A1, “TROPOMYOSIN RECEPTOR KINASE (TRK) DEGRADATION COMPOUNDS AND METHODS OF USE” (CULLGEN (SHANGHAI), INC., priority 2021, published 2024)

What was measured:
Assay type in all cases: cell-based
human full length TRKC = biological target: T1, human full length TRKC (Homo sapiens, UniProt Q16288); test: TRKC degradation in NIH3T3-TRKC cells (Western blot); conditions: 0.1 nM to 1000 nM, 16 hours, Western blot (FIG. 4C)
T1 construct: lentivirus directing expression of human full length TRKB or TRKC; expressed in transfected cells; host or cells: NIH3T3 cells, lentiviral transduction, puromycin selection
Method: (§1) NIH3T3 cells were infected with lentivirus directing expression of human full length TRKB or TRKC. Cells were then selected using 1 ug/ml puromycin to establish NIH3T3-TRKB and NIH3T3-TRKC cell lines that stably expressed human TRKB or TRKC, respectively.
(§2) HEL cells expressing endogenous TRKA, and NIH3T3-TRKB and NIH3T3-TRKC cells prepared as described above were treated with heterobifunctional compound CPD-031 at 0.1 nM, 1 nM, 10 nM, 100 nM and 1000 nM for 16 hours.
(§3) Cultured cells were washed with cold PBS once and lysed in cold RIPA buffer supplemented with protease inhibitors and phosphatase inhibitors (Beyotime Biotechnology). The solutions were then incubated at 4° C. for 30 minutes with gentle agitation to fully lyse cells. Cell lysates were centrifuged at 13,000 rpm for 10 minutes at 4° C. and pellets were discarded. Total protein concentrations in the lysates were determined by BCA assays (Beyotime Biotechnology). Cell lysates were mixed with Laemmli loading buffer to 1× and heated at 99° C. for 5 min. Proteins were resolved on SDS-PAGE and visualized by chemiluminescence. Images were taken by a ChemiDoc MP Imaging system (Bio-Rad). Protein bands were quantitated using the software provided by Bio-Rad.

[1] = tested on: TRKA G595R mutated KM12 cells; test: Cell viability assay in TRKA G595R mutated KM12 cells (CellTiter-Glo); conditions: Homo sapiens, 72 h, 3 days
Method: KM12, TRKA G595R mutated KM12, HEL, and other cells were cultured at 37° C. with 5% CO2 in DMEM or RPMI 1640 Medium supplemented with 10% fetal bovine serum. Cells were authenticated using the short tandem repeat (STR) assays. Mycoplasma test results were negative.
Cells were seeded at a density of 5000 cells per well in 96-well assay plates and treated with test compounds following a 11-point 3-fold serial dilution. Three days later, cell viability was determined using the CellTiter-Glo assay kit (Promega) according to the manufacturer's instructions. The dose-response curves were determined and IC50 values were calculated using the GraphPad Prism software following a nonlinear regression (least squares fit) method.
The activities of selected compounds on cell viability (IC50 values) and TMP3-TRKA degradation (percentage degradation at 10 nM) in KM12 cells or KM12-G595R mutated KM12 cells (KM12-G595R) are listed in Table 2.

TPM3-TRKA fusion protein = biological target: T2, TPM3-TRKA fusion protein (Homo sapiens, UniProt P04629); test: TPM3-TRKA degradation in KM12 cells (Western blot); conditions: 16 hours, TRK protein, immunoblot
T2 construct: TPM3 (N-terminal part of tropomyosin alpha-3, natural fusion partner); endogenous in cells; host or cells: KM12 colon cancer cells; the other entry of the earlier key: TPM3 (P06753, Tropomyosin alpha-3 chain)
Method in brief: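 KM12 cells treated with compound at 10 nM or 100 nM for 16 h, lysed in RIPA, and TRK protein measured by immunoblot with TRK-specific antibody and chemiluminescence band quantitation. Percent degradation binned: −, none; +, <50%; ++, ≥50% but <80%; +++, ≥80%.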

wildtype TRKA protein = biological target: T3, wildtype TRKA protein (Homo sapiens, UniProt P04629); test: Wildtype TRKA degradation in HEL cells (Western blot); conditions: 0.1 nM to 1000 nM, 16 hours, Western blot (FIG. 4A)
T3 construct: HEL cells expressing endogenous TRKA; endogenous in cells; host or cells: HEL erythroleukemia cells
Method: HEL cells were treated with heterobifunctional compounds CPD-019 and CPD-002 at 10 nM or 100 nM for 16 hours.
as §2, §3

human full length TRKB = biological target: T4, human full length TRKB (Homo sapiens, UniProt Q16620); test: TRKB degradation in NIH3T3-TRKB cells (Western blot); conditions: 0.1 nM to 1000 nM, 16 hours, Western blot (FIG. 4B)
T4 construct: lentivirus directing expression of human full length TRKB or TRKC; expressed in transfected cells; host or cells: NIH3T3 cells, lentiviral transduction, puromycin selection
Method: as §1, §2, §3

KM12 cells = test: KM12 cell viability assay (CellTiter-Glo); conditions: Homo sapiens, 72 h; KM12 cells, 3 days, CellTiter-Glo
Method in brief: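 KM12 cells, 5000 per well, treated 3 days with 11-point 3-fold serial dilutions of heterobifunctional compounds. Viability by CellTiter-Glo luminescence, normalized to untreated cells; IC50 from least-squares nonlinear regression.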

T2 sequence (P04629 with tags, fused parts or gaps): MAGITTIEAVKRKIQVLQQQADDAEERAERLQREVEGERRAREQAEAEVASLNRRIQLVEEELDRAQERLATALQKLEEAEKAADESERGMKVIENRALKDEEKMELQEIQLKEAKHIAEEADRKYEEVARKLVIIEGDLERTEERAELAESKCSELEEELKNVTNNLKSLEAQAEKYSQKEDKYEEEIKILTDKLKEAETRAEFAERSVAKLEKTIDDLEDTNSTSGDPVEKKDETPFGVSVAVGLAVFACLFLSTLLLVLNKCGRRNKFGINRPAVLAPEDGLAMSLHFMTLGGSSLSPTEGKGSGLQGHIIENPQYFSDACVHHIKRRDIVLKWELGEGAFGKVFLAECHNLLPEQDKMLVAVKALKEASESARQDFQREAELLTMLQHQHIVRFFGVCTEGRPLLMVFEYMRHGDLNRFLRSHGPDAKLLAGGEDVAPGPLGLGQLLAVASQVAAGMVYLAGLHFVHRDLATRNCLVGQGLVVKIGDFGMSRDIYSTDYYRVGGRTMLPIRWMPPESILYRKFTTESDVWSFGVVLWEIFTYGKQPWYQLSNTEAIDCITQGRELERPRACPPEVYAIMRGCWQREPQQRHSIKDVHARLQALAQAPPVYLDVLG
T1 sequence (Q16288 32-839): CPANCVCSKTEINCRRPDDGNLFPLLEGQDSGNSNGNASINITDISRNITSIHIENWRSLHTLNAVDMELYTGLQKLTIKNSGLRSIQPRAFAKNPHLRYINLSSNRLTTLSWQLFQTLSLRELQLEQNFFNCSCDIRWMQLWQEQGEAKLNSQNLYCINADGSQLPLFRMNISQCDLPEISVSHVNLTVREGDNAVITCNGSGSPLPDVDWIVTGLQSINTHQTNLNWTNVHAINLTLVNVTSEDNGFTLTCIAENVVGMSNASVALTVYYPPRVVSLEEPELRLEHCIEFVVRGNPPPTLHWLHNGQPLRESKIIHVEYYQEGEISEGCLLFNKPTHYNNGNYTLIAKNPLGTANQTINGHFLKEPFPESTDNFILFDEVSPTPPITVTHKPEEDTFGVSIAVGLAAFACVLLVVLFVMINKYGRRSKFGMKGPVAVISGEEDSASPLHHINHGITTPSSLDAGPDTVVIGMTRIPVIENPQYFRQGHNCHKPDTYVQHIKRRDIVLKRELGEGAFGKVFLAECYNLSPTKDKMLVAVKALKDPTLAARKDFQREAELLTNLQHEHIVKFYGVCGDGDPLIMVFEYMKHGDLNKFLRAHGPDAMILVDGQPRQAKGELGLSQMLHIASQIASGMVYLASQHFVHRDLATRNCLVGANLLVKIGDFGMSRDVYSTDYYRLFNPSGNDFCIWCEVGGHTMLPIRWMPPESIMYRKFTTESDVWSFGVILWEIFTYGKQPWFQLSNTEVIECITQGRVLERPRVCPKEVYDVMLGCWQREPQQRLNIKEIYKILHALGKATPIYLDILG
T3 sequence (P04629 33-796): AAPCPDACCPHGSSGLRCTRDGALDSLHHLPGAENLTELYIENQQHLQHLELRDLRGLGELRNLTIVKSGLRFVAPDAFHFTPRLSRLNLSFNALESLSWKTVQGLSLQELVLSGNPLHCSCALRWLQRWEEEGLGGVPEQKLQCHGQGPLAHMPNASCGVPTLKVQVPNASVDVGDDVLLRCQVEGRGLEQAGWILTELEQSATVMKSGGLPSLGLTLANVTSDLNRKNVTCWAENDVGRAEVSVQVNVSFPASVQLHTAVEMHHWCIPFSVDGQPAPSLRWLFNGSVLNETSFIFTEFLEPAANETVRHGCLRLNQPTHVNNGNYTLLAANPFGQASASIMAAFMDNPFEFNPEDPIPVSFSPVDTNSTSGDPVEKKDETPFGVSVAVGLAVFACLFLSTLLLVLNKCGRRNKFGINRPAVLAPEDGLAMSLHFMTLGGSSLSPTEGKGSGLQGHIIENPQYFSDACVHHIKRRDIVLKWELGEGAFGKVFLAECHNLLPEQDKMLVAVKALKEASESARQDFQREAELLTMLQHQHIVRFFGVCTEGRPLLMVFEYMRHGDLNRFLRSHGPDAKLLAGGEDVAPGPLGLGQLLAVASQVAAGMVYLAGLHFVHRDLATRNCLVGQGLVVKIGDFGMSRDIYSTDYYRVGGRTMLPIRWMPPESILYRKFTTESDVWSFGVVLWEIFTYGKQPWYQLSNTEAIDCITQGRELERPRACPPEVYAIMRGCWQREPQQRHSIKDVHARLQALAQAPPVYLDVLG
T4 sequence (Q16620 32-822): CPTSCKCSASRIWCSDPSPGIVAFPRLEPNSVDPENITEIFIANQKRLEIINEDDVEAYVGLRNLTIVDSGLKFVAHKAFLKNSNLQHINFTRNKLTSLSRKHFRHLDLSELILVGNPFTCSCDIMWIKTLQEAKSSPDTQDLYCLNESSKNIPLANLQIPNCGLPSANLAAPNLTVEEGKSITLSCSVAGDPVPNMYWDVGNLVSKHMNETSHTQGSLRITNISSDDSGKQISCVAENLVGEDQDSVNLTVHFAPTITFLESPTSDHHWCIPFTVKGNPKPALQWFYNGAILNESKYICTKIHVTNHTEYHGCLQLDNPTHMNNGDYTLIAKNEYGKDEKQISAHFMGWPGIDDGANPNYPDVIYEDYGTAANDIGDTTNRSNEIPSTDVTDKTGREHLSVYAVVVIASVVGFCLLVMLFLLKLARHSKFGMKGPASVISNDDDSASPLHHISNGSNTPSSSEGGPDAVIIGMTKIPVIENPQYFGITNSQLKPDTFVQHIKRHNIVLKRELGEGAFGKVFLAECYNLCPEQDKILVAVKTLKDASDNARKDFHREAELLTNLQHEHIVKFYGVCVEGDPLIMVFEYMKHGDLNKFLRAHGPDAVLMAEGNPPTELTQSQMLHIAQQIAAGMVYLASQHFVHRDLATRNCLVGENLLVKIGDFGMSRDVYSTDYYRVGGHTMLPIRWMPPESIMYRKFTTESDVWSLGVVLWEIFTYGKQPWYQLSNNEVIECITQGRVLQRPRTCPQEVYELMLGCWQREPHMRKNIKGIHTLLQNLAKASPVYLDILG

TRKC protein levels (human full length TRKC): minimal reduction | inhibition at 0.01 µM (TPM3-TRKA fusion protein; 10 nM): > 80% | inhibition at 0.1 µM (TPM3-TRKA fusion protein; 100 nM): > 80% | wildtype TRKA protein levels in HEL cells (wildtype TRKA protein): significantly reduced | TRKB protein levels (human full length TRKB): minimal reduction
SMILES: COCCN1C[C@@H](NC(=O)Nc2c(C)c(-c3cnc(N4CCN(CCNc5ccc6c(c5)C(=O)N(C5CCC(=O)NC5=O)C6=O)CC4)nc3)nn2-c2ccccc2)[C@H](c2cccc(F)c2)C1 (stereo partly drawn) [CPD-031, 1-(3-(2-(4-(2-((2-(2,6-dioxopiperidin-3-yl)-1,3-dioxoisoindolin-5-yl)amino)ethyl)piperazin-1-yl)pyrimidin-5-yl)-4-methyl-1-phenyl-1H-pyrazol-5-yl)-3-((3S,4R)-4-(3-fluorophenyl)-1-(2-methoxyethyl)pyrrolidin-3-yl)urea]
IC50 [1]: 6.11 nM | IC50 (KM12 cells): 2.04 nM
